Measured values published in patent US7892492B2, “Flow-through apparatus for microscopic investigation of dissolution of pharmaceutical solids” (University of Connecticut, priority 2006, dated 2011).

What was measured:
Assay type in all cases: physicochemical
[1] = Dissolution in flow-through apparatus (flow cell), 10−4N NaOH; conditions: for Dissolution Rate: 10−4N NaOH, room temperature
Procedure: In order to test an apparatus associated with the present disclosure against a rotating disk apparatus, the dissolution rate of Triamterene free base was determined in dilute NaOH. The dissolution media was chosen to be 10−4N NaOH, since at alkaline pH, the Triamterene free base is not ionized. This condition makes theoretical comparisons of flux easier since it is not necessary to account for multiple species (ionized and unionized species) and Levich's mathematical solution for dissolution from a rotating disk transport is valid. Dissolution rate was also studied in an exemplary flow-through apparatus associated with the present disclosure. The dissolution medium (10−4N NaOH) was run continuously at 0.5, 1.5, 7.0, 20 mL/min. Triamterene free base was compressed into the insert by a mini-vise. Since a pressure reading is not possible on this vise, the mass of the drug in the insert was recorded and the porosity was calculated by using the dimensions of the insert, thickness of the drug compact and true density of the Triamterene free base as measured by pycnometry. Porosity of 10% or less was considered acceptable. Triamterene was detected via fluorescence with excitation at 370 nm and emission at 432 nm. The rotating disk results are shown in FIG. 29 for each rotation speed. As expected, an increase in rotation speed leads to an increase in dissolution rate. The dissolution rate for the entire experiment is represented by the slope of this line. Because this is the Triamterene free base dissolving in alkaline conditions, it is not expected to undergo a conversion, thus a constant dissolution rate vs. time curve is expected. However, interesting results can be seen in FIG. 30 showing dissolution rate vs. time data. […] The data from FIGS. 32 and 33 were used to estimate the dissolution rate at each volumetric flow rate for FIG. 34.

[2] = Rotating disk (Wood's die) dissolution, 10−4N NaOH; conditions: for Dissolution Rate: rotating disk, 900 ml 10−4N NaOH, room temperature
Procedure: In order to test an apparatus associated with the present disclosure against a rotating disk apparatus, the dissolution rate of Triamterene free base was determined in dilute NaOH. The dissolution media was chosen to be 10−4N NaOH, since at alkaline pH, the Triamterene free base is not ionized. This condition makes theoretical comparisons of flux easier since it is not necessary to account for multiple species (ionized and unionized species) and Levich's mathematical solution for dissolution from a rotating disk transport is valid. Rotating disk dissolution was run in a standard dissolution apparatus at 25, 80 and 200 rpm. The dissolution medium was 900 ml of 10−4 N NaOH at room temperature (since the flow cell has no temperature control at this time). The Wood's die apparatus has an exposed drug surface area of 0.5 cm^2. Approximately 125 mg of Triamterene free base was compressed into the die using a Carver Press. The compression conditions were 5000 lbs of force for 30 seconds. Triamterene was detected via fluorescence with excitation at 370 nm and emission at 432 nm. The rotating disk results are shown in FIG. 29 for each rotation speed. As expected, an increase in rotation speed leads to an increase in dissolution rate. The dissolution rate for the entire experiment is represented by the slope of this line. Because this is the Triamterene free base dissolving in alkaline conditions, it is not expected to undergo a conversion, thus a constant dissolution rate vs. time curve is expected. However, interesting results can be seen in FIG. 30 showing dissolution rate vs. time data. […] The data from FIGS. 32 and 33 were used to estimate the dissolution rate at each volumetric flow rate for FIG. 34.

[3] = Flow-through apparatus dissolution in HCl with stereomicroscope imaging; conditions: flow cell
Procedure: A flow-through apparatus associated with the present disclosure was tested using a model compound. Triamterene free base was chosen as the model compound as this is readily available and there is literature available on its various salt forms. An advantage of an apparatus associated with the present disclosure is that the user is able to observe the solid during dissolution. The following experimental results are preliminary data for a flow-through apparatus experiment (before the compression step was controlled). Approximately 20 mg of a sample drug was compressed in an insert for dissolution. Flow-through experiments were performed using 0.1N or 0.001N HCl as the dissolution medium pumped through a dissolution channel at 5 ml/min and 25 ml/min. Triamterene concentration in the effluent was measured by UV analysis at 370 nm. […] With the flow cell mounted in a jig so that it is tilted slightly, it is possible to capture images that show the face of the drug compact that is exposed to the fluid as well as the “control” dry surface face adjacent to the glass plate. Flow is from left to right in the following figures of Triamterene Free Base Dissolution in 0.1 N HCl at 25 ml/min: FIG. 23 at t=0; FIG. 24 at t=5 min; FIG. 25 at t=10 min; FIG. 26 at t=15 min; FIG. 27 at t=20 min; FIG. 28 at 25 minutes.

[4] = Rotating disk dissolution in HCl
Description: Dissolution data are often collected in terms of amount dissolved curve vs. time. This is the case for rotating disk experiments due to the nature of the apparatus, i.e., batch operation. In rotating disk experiments, a change in solid form (such as salt form, polymorph form, amorphous to crystalline form) is indicated by a change in slope in a cumulative dissolution curve. A change of slope signifies a change in dissolution rate. […] In FIG. 20, the change in slope occurs at approximately 45 minutes, although it is difficult to determine an exact time due to some curvature in the plot.
These phenomena can be better understood by plotting a dissolution rate vs. time curve. For the rotating disk, data are still collected in a cumulative manner; however, further data treatment makes a change in slope easier to recognize. From a cumulative amount dissolved curve the slope between each set of adjacent points is taken and plotted against the midpoint of time. Using this method, it is easier to point out the time when the dissolution rate changes and determine the terminal dissolution rate. The resultant plot is a dissolution rate vs. time curve.

## Nc1nc(N)c2nc(-c3ccccc3)c(N)nc2n1 [Triamterene free base, Triamterene]
[1]; 0.5-20 mL/min, 10−4N NaOH (FIG. 33)
  Course of dissolution rate with time: decrease of dissolution rate with time
[1]; flow rate 0.5 ml/min
  Dissolution Rate: 1.1 ug/cm^2min
[1]; flow rate 1.5 ml/min
  Dissolution Rate: 1.5 ug/cm^2min
[1]; flow rate 7.0 ml/min
  Dissolution Rate: 2.7 ug/cm^2min
[1]; flow rate 20 ml/min
  Dissolution Rate: 4.7 ug/cm^2min
[2]; rotating disk, 25, 80 and 200 rpm, 10−4N NaOH (FIG. 30)
  Course of dissolution rate with time: initial decrease in the dissolution rate with time
[2]; 25 rpm
  Dissolution Rate: 0.8 ug/cm^2min
[2]; 80 rpm
  Dissolution Rate: 1.5 ug/cm^2min
[2]; 200 rpm
  Dissolution Rate: 2.3 ug/cm^2min
[3]; 0.001 HCl, 5 mL/min
  Observable changes of the solid in stereomicroscope images: did not reveal any observable changes
[3]; 0.001 HCl, 5 mL/min (FIG. 22)
  Time after which the dissolution rate is relatively constant: 25 min
[3]; 0.1N HCl, 25 ml/min
  Salt transformation observed during dissolution: significant hydrochloride salt growth on the drug surface
  Time until which the new solid grows before it is washed away with the fluid: 15 min
[3]; 0.1N HCl, 25 ml/min, after five minutes (FIG. 24)
  Observation of drug compact during dissolution: nucleation and significant crystal growth has occurred
[4]; rotating disk, 0.001N HCl, 50 rpm, preliminary data (FIG. 20)
  Time of change in slope of cumulative amount dissolved vs. time curve: approximately 45 minutes

## Triamterene citrate
[4]; rotating disk, 0.1, 0.01 or 0.001N HCl
  Comparison of dissolution rate between HCl concentrations: highest dissolution rate in 0.01N HCl
[4]; rotating disk, chloride ion concentration normalized to 0.1N HCl
  Rank order of dissolution rate with pH: 0.1N>0.01N>0.001N HCl
